In paper PMC12592502, “Unraveling the mechanisms behind the enhanced efficacy of β-lactam-based sideromycins” (Communications Biology, 2025):
In brackets after ≈: the same amount, converted by molar mass. Several values for one entry are separate records, joined by “and”; a condition that tells them apart may be missing. Identical values can stand only once. Like-named read-outs stand apart in the source and are kept apart here.

Legend:
[1] = tested on: P. aeruginosa ATCC 27853; experiment: MIC, broth microdilution (CLSI); format: cell-based, Pseudomonas aeruginosa; settings: for MIC in combination with PAβN: + 25 µg/mL PAβN
Procedure: (§1) All bacterial strains (see description and sources Table S1) were stored at −80 °C, and grown on tryptone soya agar (TSA) at 35 °C. The iron-deprived (ID)-MHBCA (cation-adjusted Muller-Hinton Broth, Becton Dickinson, Mississauga, ON, Canada) medium was prepared as reported by refs. [21],[50]. Briefly, MHBCA was treated with 10% Chelex® 50-100 mesh (Sigma) and stirred for 6 h at room temperature. The resin was removed by filtration. Divalent Ca^2+ (CaCl2), Mg^2+ (MgCl2), and Zn^2+(ZnSO4), were then added in the iron-depleted medium at 22, 12, and 1 μg/ml respectively. Finally, the pH was adjusted to 7.3, and the medium was sterilized with a 0.2-μm filter. Regular MHBCA (i.e., not treated with Chelex®) was used to compare the inhibitory activity of conjugates in iron-sufficient conditions.
(§2) Minimal inhibitory concentrations (MICs) were performed using a broth microdilution technique according to the Clinical and Laboratory Standards Institute (CLSI) guidelines. MICs were determined in MHBCA and in ID-MHBCA. To check the impact of β-lactamases, MICs in the presence of a β-lactamase inhibitor were also determined. The inhibitor was homogenized at 2X the final concentration and added to the bacterial inoculum just before distributing cells into the wells containing the drug dilutions. The final concentration of each inhibitor was 4 μg/mL for clavulanic acid (tested against K. pneumoniae) and 200 μg/mL for 3-aminophenylboronic acid (tested against P. aeruginosa and A. baumannii).

[2] = tested on: K. pneumoniae ATCC 13883; experiment: MIC, broth microdilution (CLSI); format: cell-based, Klebsiella pneumoniae; settings: for MIC with β-lactamase inhibitor (βI): + 4 μg/mL clavulanic acid
Procedure: as §1, with “conditions. The resin used for Chelex treatment was always fresh and had never been regenerated, ensuring consistent iron removal.” for “conditions.”
as §2

[3] = biological target: T1, PBP4 (Escherichia coli, UniProt P24228); experiment: Membrane PBP binding assay, competition with Bocillin FL; parameters: species or system E. coli MC4100; settings: E. coli MC4100 membranes; read-out: IC50 PBP4
T1 construct: using bacterial membranes as the source of PBPs; endogenous in cells; host or cells: E. coli MC4100 membrane preparation
T1 sequence (P24228 21-477): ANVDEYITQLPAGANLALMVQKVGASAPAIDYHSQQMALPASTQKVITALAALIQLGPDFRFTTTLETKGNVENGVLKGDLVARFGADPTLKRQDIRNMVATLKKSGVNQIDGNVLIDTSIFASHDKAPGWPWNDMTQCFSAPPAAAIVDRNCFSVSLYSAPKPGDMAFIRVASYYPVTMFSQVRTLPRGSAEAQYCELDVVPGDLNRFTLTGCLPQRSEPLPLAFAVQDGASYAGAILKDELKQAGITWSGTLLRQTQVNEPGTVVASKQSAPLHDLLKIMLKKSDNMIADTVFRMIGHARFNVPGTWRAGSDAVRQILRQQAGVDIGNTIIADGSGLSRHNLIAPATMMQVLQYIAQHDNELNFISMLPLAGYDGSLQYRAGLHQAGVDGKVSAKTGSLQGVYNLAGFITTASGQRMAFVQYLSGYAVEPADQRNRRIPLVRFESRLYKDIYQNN
Procedure: (§3) Membrane extracts containing PBPs were obtained as described above. Briefly, all species were grown in 1 L of TSB until the OD600 reached 0.9. The washed pellet was incubated with lysozyme (400 μg/mL), DNase (10 μg/mL) RNase(10 μg/mL) and anti-protease cocktail (200 mg/20 mL). Lysis was done with a French press (20,000 psi) and membrane protein were pelleted by ultracentrifugation steps (100,000 × g). The pellet was suspended in a minimal volume (300–500 μL) of KP 0.05 M buffer at pH 7. The protein concentration in the membrane preparations was determined with the Micro BCA TM Protein Assay Kit (Thermo Fisher Scientific, Rockford, IL) using bovine serum albumin as a standard.
(§4) The PBP binding assay was done as described previously[36],[56],[57]. For each antibiotic concentration tested, a quantity of 25 to 40 μg of membrane preparation was used as the source of PBPs, depending on the species. For the purified PaPBP3, 150 ng was used in the assay. First, increasing concentrations of the test antibiotic was added to the membrane or purified PaPBP3 preparations and incubated for 10 min at 30 °C. The reporter molecule Bocillin FL was then added at 12.5 μM for the membrane PBPs preparations and at 500 nM for the pure PaPBP3 samples for an additional 20 min at 30 °C. All reactions were stopped with the addition of the Laemmli-loading buffer (Bio-Rad) containing fresh β-mercaptoethanol (Sigma). All reactions were then heated at 100°C for 3 min before migration on SDS-polyacrylamide discontinuous gel system (7.5% stacking and 10% separating). Control samples without Bocillin FL were also included to highlight autofluorescent proteins that are not PBPs.
(§5) To be able to visualize labeled PBPs after electrophoresis, gels were rinsed in water and fixed in a solution of 50% methanol and 7% acetic acid for 30 min. The fluorescent images of gels were obtained with the Typhoon FLA 9500 instrument (GE-Healthcare Bio-Sciences Inc., Baie-d’Urfé, QC, CA) using a 473 nm excitation wavelength. To obtain quantifiable data, the software Quantity One 1D analysis was used (version 4.6.6; Bio-Rad Laboratories, Richmond, CA). The volume (intensity × constant area) of each PBP was measured. […] All IC50 data were obtained from at least two independent PBP binding assays using two different sets of compound concentrations using a linear regression. The PBP profiles were confirmed, and the PBP numbering were determined using published data and individual molecular weights. […] For example, amdinocillin (Sigma) was used for PBP2 identification. […] The IC50 for PBP 2 of P. aeruginosa was measured by including the SDS-PAGE comigrating autofluorescent protein in the background, as done previously.

[4] = biological target: PBP1a/1b; experiment: as above; parameters: species or system E. coli MC4100; settings: E. coli MC4100 membranes, 12.5 μM Bocillin FL
Procedure: as §3, §4, §5

[5] = biological target: T2, PBP3 (Escherichia coli, UniProt P0AD68); experiment: as above; parameters: species or system E. coli MC4100; settings: E. coli MC4100 membranes; read-out: IC50 PBP3
T2 construct: using bacterial membranes as the source of PBPs; endogenous in cells; host or cells: E. coli MC4100 membrane preparation
T2 sequence (P0AD68 whole entry): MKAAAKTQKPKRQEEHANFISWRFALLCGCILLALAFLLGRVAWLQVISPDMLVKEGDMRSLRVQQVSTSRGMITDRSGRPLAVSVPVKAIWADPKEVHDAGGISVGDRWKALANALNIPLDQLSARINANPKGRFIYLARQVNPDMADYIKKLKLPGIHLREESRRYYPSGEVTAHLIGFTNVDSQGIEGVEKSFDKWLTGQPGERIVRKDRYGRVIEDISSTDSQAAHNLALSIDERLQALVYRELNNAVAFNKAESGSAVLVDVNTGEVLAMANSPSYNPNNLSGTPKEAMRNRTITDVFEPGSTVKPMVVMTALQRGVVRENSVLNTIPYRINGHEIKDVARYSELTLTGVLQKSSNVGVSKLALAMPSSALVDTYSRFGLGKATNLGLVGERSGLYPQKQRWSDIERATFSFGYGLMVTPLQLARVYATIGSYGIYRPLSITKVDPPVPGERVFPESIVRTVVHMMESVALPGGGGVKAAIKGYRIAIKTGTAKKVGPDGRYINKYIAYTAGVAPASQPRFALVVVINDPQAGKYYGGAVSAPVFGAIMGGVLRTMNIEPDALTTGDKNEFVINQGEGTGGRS
Procedure: as §3, §4, §5

[6] = biological target: T3, PBP2 (Escherichia coli, UniProt P0AD65); experiment: as above; parameters: species or system E. coli MC4100; settings: E. coli MC4100 membranes; read-out: IC50 PBP2
T3 construct: using bacterial membranes as the source of PBPs; endogenous in cells; host or cells: E. coli MC4100 membrane preparation
T3 sequence (P0AD65 whole entry): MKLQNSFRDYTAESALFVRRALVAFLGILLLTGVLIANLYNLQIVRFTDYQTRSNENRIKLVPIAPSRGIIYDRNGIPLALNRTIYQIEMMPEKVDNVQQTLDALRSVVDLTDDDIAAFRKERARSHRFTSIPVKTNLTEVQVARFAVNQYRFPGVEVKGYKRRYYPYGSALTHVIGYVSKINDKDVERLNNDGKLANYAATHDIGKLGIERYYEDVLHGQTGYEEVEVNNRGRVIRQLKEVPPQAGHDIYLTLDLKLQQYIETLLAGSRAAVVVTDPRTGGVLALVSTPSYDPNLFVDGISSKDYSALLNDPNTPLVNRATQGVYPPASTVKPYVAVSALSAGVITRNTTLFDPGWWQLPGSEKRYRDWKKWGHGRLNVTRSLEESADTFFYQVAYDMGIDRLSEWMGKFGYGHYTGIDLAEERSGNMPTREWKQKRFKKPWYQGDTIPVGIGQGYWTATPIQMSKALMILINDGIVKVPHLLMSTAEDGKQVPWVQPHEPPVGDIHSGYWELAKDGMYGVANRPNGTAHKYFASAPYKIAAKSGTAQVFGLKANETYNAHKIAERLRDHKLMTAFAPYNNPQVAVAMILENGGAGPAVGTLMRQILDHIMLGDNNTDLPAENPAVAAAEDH
Procedure: as §3, §4, §5

[7] = tested on: P. aeruginosa 2302 MexAB, MexCD, MexEF upregulated; experiment: MIC, efflux pump overexpressing strain; format: cell-based, Pseudomonas aeruginosa; settings: Pseudomonas aeruginosa
Procedure: as §2

[8] = Pseudomonas aeruginosa, ATCC27853, ID-MHBCA (−), 0 µg/mL supplemental iron, read-out: MIC
[9] = Pseudomonas aeruginosa, ATCC27853, ID-MHBCA + 1 µg/mL supplemental iron, read-out: MIC
[10] = Pseudomonas aeruginosa, ATCC27853, ID-MHBCA, + 200 μg/mL APB, read-out: MIC with β-lactamase inhibitor (βI)
[11] = Pseudomonas aeruginosa, ATCC27853, MHBCA (+), no inhibitor, read-out: MIC
[12] = Pseudomonas aeruginosa, ATCC27853, MHBCA, + 200 μg/mL 3-aminophenylboronic acid (APB), read-out: MIC with β-lactamase inhibitor (βI)
[13] = ID-MHBCA (−), 0 µg/mL supplemental iron
[14] = Klebsiella pneumoniae, ATCC13883, ID-MHBCA (−), 0 µg/mL supplemental iron
[15] = Klebsiella pneumoniae, ATCC13883, ID-MHBCA + 1 µg/mL supplemental iron
[16] = Klebsiella pneumoniae, ATCC13883, MHBCA (+)

For `CC1(C)S[C@@H]2[C@H](NC(=O)[C@H](N)c3ccccc3)C(=O)N2[C@H]1C(=O)O` [AMP, ampicillin, reference compound], which MIC ([1]; ID-MHBCA (−), 0 µg/mL supplemental iron, read-out: MIC) is on record?
Its MIC is over 200 µM.

What about the MIC ([1]; MHBCA (+), no inhibitor, read-out: MIC) of the same compound?
Its MIC is over 200 µM.

What about the “MIC in combination with PAβN” value ([1]; MHBCA) of the same compound?
The value was over 200 µM.

And the MIC [1, 8]?
Its MIC is over 200 µM.

And the MIC [1, 9]?
The MIC was over 200 µM.

And the MIC [1, 10]?
Its MIC is 100 µM.

And the MIC [1, 11]?
The MIC was over 200 µM.

What about the MIC [1, 12] of the same compound?
Its MIC is 100 µM.

What about the MIC [2, 13] of the same compound?
Its MIC is over 200 µM.

And the “MIC with β-lactamase inhibitor (βI)” value ([2]; ID-MHBCA)?
The value was 6.3 µM.

And the MIC [2, 14]?
The MIC was over 200 µM.

What about the MIC [2, 15] of the same compound?
Its MIC is over 200 µM.

What about the MIC [2, 16] of the same compound?
The MIC was over 200 µM.

What about the MIC ([2]; MHBCA (+)) of the same compound?
The MIC was over 200 µM.

And the “MIC with β-lactamase inhibitor (βI)” value ([2]; MHBCA)?
The value was 6.3 μM and 6.3^d μM.

And the IC50 [3]?
The IC50 was 8.3 ± 0.8 µM.

What about the IC50 [4] of the same compound?
The IC50 was 7.22 ± 0.07 µM.

And the IC50 [5]?
The IC50 was 1.92 ± 0.94 µM.

And the IC50 [6]?
The IC50 was 11.4 ± 2.4 µM.

And the MIC [7]?
The MIC was over 200 µM.

`CC1(C)SC2C(NC(=O)C(NC(=O)CN(CCCCNC(=O)c3cccc(O)c3O)C(=O)c3cccc(O)c3O)c3ccccc3)C(=O)N2C1C(=O)O` (stereo not shown) [BAMP, bis-catechol (azotochelin)-ampicillin] was tested. Which “potentiation of activity (MIC decrease) by PAβN” value ([1]; 25 µg/mL PAβN) did it give?
Its value is 8 fold.

What about the “MIC ratio unconjugated β-lactam/conjugate” value ([1]; ID-MHBCA) of the same compound?
The value was over 2048.

What about the “MIC ratio 0/1” value ([1]; ID-MHBCA, 0 and 1 µg/mL supplemental iron (Table S2)) of the same compound?
Its value is 128.

What about the “MIC ratio 1/0” value ([1]; ID-MHBCA, 1 versus 0 µg/mL supplemental iron (peer review file table)) of the same compound?
The value was 128.

And the “MIC ratio unconjugated β-lactam/conjugate” value ([1]; MHBCA)?
The value was over 128.

And the “MIC in combination with PAβN” value ([1]; MHBCA)?
Its value is 0.2 µM.

What about the MIC [1, 8] of the same compound?
The MIC was 0.1 µM (≈ 0.075 µg/mL).

And the MIC ([1]; Pseudomonas aeruginosa, ATCC27853, ID-MHBCA + 0.1 µg/mL supplemental iron, read-out: MIC)?
Its MIC is 0.8 µM.

What about the MIC [1, 9] of the same compound?
Its MIC is 13 µM.

What about the MIC [1, 10] of the same compound?
The MIC was 0.1 µM.

What about the MIC [1, 11] of the same compound?
The MIC was 1.6 µM (≈ 1.2 µg/mL).

What about the MIC [1, 12] of the same compound?
Its MIC is 1.6 µM.

What about the “MIC ratio unconjugated β-lactam/conjugate” value ([2]; ID-MHBCA) of the same compound?
Its value is “No activity”.

What about the MIC [2, 13] of the same compound?
Its MIC is over 200 µM.

What about the “MIC with β-lactamase inhibitor (βI)” value ([2]; ID-MHBCA) of the same compound?
Its value is 0.4 µM.

And the MIC [2, 14]?
Its MIC is over 200 µM.

And the MIC [2, 15]?
Its MIC is over 200 µM.

What about the MIC [2, 16] of the same compound?
The MIC was over 200 µM.

What about the “MIC ratio unconjugated β-lactam/conjugate” value ([2]; MHBCA) of the same compound?
The value was “No activity”.

What about the MIC ([2]; MHBCA (+)) of the same compound?
Its MIC is over 200 µM.

And the “MIC with β-lactamase inhibitor (βI)” value ([2]; MHBCA)?
Its value is 1.6 µM.

And the IC50 [3]?
Its IC50 is over 50 µM.

And the IC50 [4]?
The IC50 was 2.4 ± 0.54 µM.

What about the IC50 [5] of the same compound?
Its IC50 is 0.091 ± 0.007 µM.

And the IC50 [6]?
Its IC50 is 2.26 ± 0.57 µM.

And the MIC [7]?
The MIC was 0.4 µM (≈ 0.3 µg/mL).
